# According to article PMC7188728, “A phase I study investigation of metabolism, and disposition of [^14C]-anlotinib after an oral administration in patients with advanced refractory solid tumors” (Cancer Chemotherapy and Pharmacology, 2020):
# Structures can show the parent of a compound that is named as a salt.
# Columns and labels:
# [1] = Total radioactivity pharmacokinetics in plasma after single oral [14C]-anlotinib hydrochloride; type: in vivo, human
# Procedure: The blood samples were collected before orally administration and 0.5, 2, 4, 8, 10, 12, 24, 48, 72, 96, 120, 144, 168, 192, 216, 240, 288, 312, 384, 408, 456, 480, 552, 840, 888, and 1416 h after orally administration. An aliquot of the blood samples was mixed gently and chilled immediately under − 20 °C; the remainder was centrifuged at 1660 g for 10 min at 4 °C to separate the plasma samples.
# Levels of radioactivity in plasma, urine, and extracts of fecal samples were determined by mixing individual samples with 5 mL scintillation cocktail and determined by counting directly in a liquid scintillation counter (LSC). Blood, fecal homogenates, and post extraction solids were combusted with OX-501 Biological Sample Oxidizer, the ^14CO2 formed were trapped directly in 15 mL scintillation cocktail, followed by counting with LSC. Samples were assayed with a liquid scintillation counter for 5 min.
# The peak concentration (Cmax) and the time to Cmax (Tmax) were obtained through the plasma concentration directly. The area under concentration–time curve up to the last measured time point (AUC0−t) was calculated by the trapezoidal rule. The k was estimated by linear regression analysis of the terminal portion of the log concentration–time data, and the elimination half-life (t1/2) was calculated through the coefficient 0.693/k. The renal clearance (CLR) was calculated by dividing the cumulative amount excreted into urine (Cum. Ae−U) by plasma AUC0−t.
# [2] = Adverse events after a single dose of 14C anlotinib suspension; type: in vivo, human; details: D1 ~ D18, N = 6
# [3] = six male patients, single oral 14.15 mg/80 or 120 µCi
# [4] = suspension here vs capsule in the previous study
compound,measurement,setting,value
"COc1cc2c(Oc3ccc4[nH]c(C)cc4c3F)ccnc2cc1OCC1(N)CC1 [anlotinib, 1-[[4-(4-fluoro-2-methyl-1H-indol-5-yloxy)-6-methoxyquinolin-7-yl]oxy]methyl) cyclopropanamine dihydrochloride]","AUC0-last (AUClast) of total radioactivity in plasma, average",[1]; [3],4071 h∙ng Eq./g
same,"AUC0-∞ of total radioactivity in plasma, average",[1]; [3],"13,555 h∙ng Eq./g"
same,"Cmax of total radioactivity (TRA) in plasma, average",[1]; [3],18.80 ng Eq./g
same,"Tmax of total radioactivity (TRA) in plasma, average",[1]; [3],4.42 h
same,AUC relative to the published phase I study,[1]; [4],twice
same,Cmax relative to the published phase I study,[1]; [4],twice
same,Alkaline phosphatase increased: number of cases of grade 1/2 (%),[2],1 (16.67%) n (%)
same,Alkaline phosphatase increased: number of cases of grade 3 (%),[2],0 n (%)
same,Anemia: number of cases of grade 1/2 (%),[2],1 (16.67%) n (%)
same,Anemia: number of cases of grade 3 (%),[2],0 n (%)
same,Aspartate aminotransferase increased: number of cases of grade 1/2 (%),[2],0 n (%)
same,Aspartate aminotransferase increased: number of cases of grade 3 (%),[2],1 (16.67%) n (%)
same,At least once (any adverse event): number of cases of grade 1/2 (%),[2],5 (83.33%) n (%)
same,At least once (any adverse event): number of cases of grade 3 (%),[2],3 (50%) n (%)
same,Constipation: number of cases of grade 1/2 (%),[2],2 (33.33%) n (%)
same,Constipation: number of cases of grade 3 (%),[2],0 n (%)
same,Cough: number of cases of grade 1/2 (%),[2],1 (16.67%) n (%)
same,Cough: number of cases of grade 3 (%),[2],0 n (%)
same,Diarrhea: number of cases of grade 1/2 (%),[2],1 (16.67%) n (%)
same,Diarrhea: number of cases of grade 3 (%),[2],0 n (%)
same,Hemoptysis: number of cases of grade 1/2 (%),[2],0 n (%)
same,Hemoptysis: number of cases of grade 3 (%),[2],0 n (%)
same,Hypertriglyceridemia: number of cases of grade 1/2 (%),[2],1 (16.67%) n (%)
same,Hypertriglyceridemia: number of cases of grade 3 (%),[2],0 n (%)
same,Hypoalbuminemia: number of cases of grade 1/2 (%),[2],3 (50%) n (%)
same,Hypoalbuminemia: number of cases of grade 3 (%),[2],0 n (%)
same,Hypocalcemia: number of cases of grade 1/2 (%),[2],1 (16.67%) n (%)
same,Hypocalcemia: number of cases of grade 3 (%),[2],0 n (%)
same,Hypophosphatemia: number of cases of grade 1/2 (%),[2],1 (16.67%) n (%)
same,Hypophosphatemia: number of cases of grade 3 (%),[2],1 (16.67%) n (%)
same,Hypothyroidism: number of cases of grade 1/2 (%),[2],1 (16.67%) n (%)
same,Hypothyroidism: number of cases of grade 3 (%),[2],0 n (%)
same,Increased alanine aminotransferase: number of cases of grade 1/2 (%),[2],1 (16.67%) n (%)
same,Increased alanine aminotransferase: number of cases of grade 3 (%),[2],1 (16.67%) n (%)
same,Increased blood bilirubin: number of cases of grade 1/2 (%),[2],1 (16.67%) n (%)
same,Increased blood bilirubin: number of cases of grade 3 (%),[2],1 (16.67%) n (%)
same,Increased lactate dehydrogenase: number of cases of grade 1/2 (%),[2],1 (16.67%) n (%)
same,Increased lactate dehydrogenase: number of cases of grade 3 (%),[2],0 n (%)
same,Increased lipase: number of cases of grade 1/2 (%),[2],2 (33.33%) n (%)
same,Increased lipase: number of cases of grade 3 (%),[2],2 (33.33%) n (%)
same,Increased γ-glutamyl transpeptidase: number of cases of grade 1/2 (%),[2],1 (16.67%) n (%)
same,Increased γ-glutamyl transpeptidase: number of cases of grade 3 (%),[2],1 (16.67%) n (%)
same,Insomnia: number of cases of grade 1/2 (%),[2],2 (33.33%) n (%)
same,Insomnia: number of cases of grade 3 (%),[2],0 n (%)
same,Liver function damage: number of cases of grade 1/2 (%),[2],0 n (%)
same,Liver function damage: number of cases of grade 3 (%),[2],1 (16.67%) n (%)
same,Proteinuria: number of cases of grade 1/2 (%),[2],1 (16.67%) n (%)
same,Proteinuria: number of cases of grade 3 (%),[2],0 n (%)
same,Rapid atrial fibrillation: number of cases of grade 1/2 (%),[2],1 (16.67%) n (%)
same,Rapid atrial fibrillation: number of cases of grade 3 (%),[2],0 n (%)
same,Sinus bradycardia: number of cases of grade 1/2 (%),[2],1 (16.67%) n (%)
same,Sinus bradycardia: number of cases of grade 3 (%),[2],0 n (%)
same,Sinus tachycardia: number of cases of grade 1/2 (%),[2],1 (16.67%) n (%)
same,Sinus tachycardia: number of cases of grade 3 (%),[2],0 n (%)
same,Stomachache: number of cases of grade 1/2 (%),[2],1 (16.67%) n (%)
